Measurements as given in patent US20240034736A1, “HSD17B13 INHIBITORS AND USES THEREOF” (FL2022-001, Inc., priority 2020, published 2024).

Biological target: Recombinant human HSD17B13 enzyme (Homo sapiens (Human), UniProt Q7Z5P4)
Test: HSD17b13 NAD(P)H-Glo Biochemical Assay
Conditions: for IC50: 50 uM estradiol, 1 mM NAD+, read-out: HSD17β13 IC50; for inhibition at 10 µM: read-out: HSD17β13 inhibition at 10 uM; for inhibition at 100 µM: read-out: HSD17β13 inhibition at 100 uM
In short: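 Luminescent NAD(P)H-Glo detection (1 h, RT) quantified cofactor reduction after a 3 h, 37° C reaction of human HSD17B13 with estradiol (50 uM final) and NAD+ (1 mM final). Compounds were first pre-incubated 20 min at RT with enzyme in Tris pH 7.4 buffer containing Tween-20 and BSA.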

Recombinant human HSD17B13 enzyme, sequence (Q7Z5P4 20-300): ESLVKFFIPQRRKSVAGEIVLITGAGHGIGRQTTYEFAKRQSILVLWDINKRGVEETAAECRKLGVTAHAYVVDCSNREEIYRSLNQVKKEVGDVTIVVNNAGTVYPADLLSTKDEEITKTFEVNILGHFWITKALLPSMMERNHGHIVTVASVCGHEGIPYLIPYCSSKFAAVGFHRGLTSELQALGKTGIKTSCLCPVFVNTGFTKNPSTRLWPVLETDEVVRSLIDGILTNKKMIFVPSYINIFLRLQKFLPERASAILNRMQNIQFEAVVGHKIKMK

Row | Structure (SMILES) | IC50 [nM] | other results
1 | CNC(=O)c1nn(-c2cc(C(F)(F)F)c(F)c(O)c2F)c2ccc(N(C)C3CCOCC3)cc12 [Compound 19.112, 1-(2,4-Difluoro-3-hydroxy-5-(trifluoromethyl)phenyl)-N-methyl-5-(methyl(tetrahydro-2H-pyran-4-yl)amino)-1H-indazole-3-carboxamide] | 1000 to 30000 | –
2 | CN(C)C(=O)c1nn(-c2cc(C(F)(F)F)c(F)c(O)c2F)c2ccc(N(C)C3CCOCC3)cc12 [Compound 19.113, 1-(2,4-Difluoro-3-hydroxy-5-(trifluoromethyl)phenyl)-N,N-dimethyl-5-(methyl(tetrahydro-2H-pyran-4-yl)amino)-1H-indazole-3-carboxamide] | 1000 to 30000 | –
3 | Cc1nn(-c2cc(C(F)(F)F)c(F)c(O)c2F)c2cc(Cl)c(N3CCOCC34CC4)nc12 [Compound 19.114, 3-(6-Chloro-3-methyl-5-(7-oxa-4-azaspiro[2.5]octan-4-yl)-1H-pyrazolo[4,3-b]pyridin-1-yl)-2,6-difluoro-5-(trifluoromethyl)phenol] | < 100 | –
4 | Cc1nn(-c2cc(C(F)(F)F)c(F)c(O)c2F)c2cc(Cl)c(N(C)C3CCOCC3)nc12 [Compound 19.115, 3-(6-Chloro-3-methyl-5-(methyl(tetrahydro-2H-pyran-4-yl)amino)-1H-pyrazolo[4,3-b]pyridin-1-yl)-2,6-difluoro-5-(trifluoromethyl)phenol] | < 100 | –
5 | Cc1nn(-c2cc(C(F)(F)F)c(Cl)c(O)c2F)c2cnc(N3CCOCC34CC4)cc12 [Compound 19.116, 2-Chloro-6-fluoro-5-(3-methyl-5-(7-oxa-4-azaspiro[2.5]octan-4-yl)-1H-pyrazolo[3,4-c]pyridin-1-yl)-3-(trifluoromethyl)phenol] | < 100 | –
6 | CCCCCOc1ncc2c(n1)c(C)nn2-c1cc(C(F)(F)F)c(F)c(O)c1F [Compound 19.117, 2,6-Difluoro-3-(3-methyl-5-(pentyloxy)-1H-pyrazolo[4,3-d]pyrimidin-1-yl)-5-(trifluoromethyl)phenol] | 100 to 1000 | –
7 | Cc1nn(-c2cc(C(F)(F)F)c(F)c(O)c2F)c2cnc(N3CCNCC3)nc12 [Compound 19.118, 2,6-Difluoro-3-(3-methyl-5-(piperazin-1-yl)-1H-pyrazolo[4,3-d]pyrimidin-1-yl)-5-(trifluoromethyl)phenol] | 1000 to 30000 | –
8 | Cc1nn(-c2nc(C(F)(F)F)c(F)c(O)c2F)c2cnc(N3CCOCC34CC4)cc12 [Compound 19.119, 3,5-Difluoro-2-(3-methyl-5-(7-oxa-4-azaspiro[2.5]octan-4-yl)-1H-pyrazolo[3,4-c]pyridin-1-yl)-6-(trifluoromethyl)pyridin-4-ol] | 1000 to 30000 | –
9 | Cc1nn(-c2cccc(O)c2C#N)c2cnc(N(C)C3CCOCC3)cc12 [Compound 19.120, 2-Hydroxy-6-(3-methyl-5-(methyl(tetrahydro-2H-pyran-4-yl)amino)-1H-pyrazolo[3,4-c]pyridin-1-yl)benzonitrile] | – | inhibition at 10 µM: 25%
10 | Cc1nn(-c2cc(O)c(F)c(C(=O)O)c2)c2cnc(N3CCOCC34CC4)cc12 [Compound 19.121, 2-Fluoro-3-hydroxy-5-(3-methyl-5-(7-oxa-4-azaspiro[2.5]octan-4-yl)-1H-pyrazolo[3,4-c]pyridin-1-yl)benzoic Acid] | – | inhibition at 10 µM: < 20%
11 | CNC(=O)c1cc(-n2nc(C)c3cc(N4CCOCC45CC5)ncc32)cc(O)c1F [Compound 19.122, 2-Fluoro-3-hydroxy-N-methyl-5-(3-methyl-5-(7-oxa-4-azaspiro[2.5]octan-4-yl)-1H-pyrazolo[3,4-c]pyridin-1-yl)benzamide] | – | inhibition at 10 µM: 20%
12 | CS(=O)(=O)N1CCN(c2cc3cnn(-c4cc(O)cc(C#N)c4)c3cn2)CC1 [Compound 19.123, 3-Hydroxy-5-(5-(4-(methylsulfonyl)piperazin-1-yl)-1H-pyrazolo[3,4-c]pyridin-1-yl)benzonitrile] | – | inhibition at 30 µM (read-out: HSD17β13 inhibition at 30 uM): 30%
13 | CS(=O)(=O)N1CCN(c2ccc3c(cnn3-c3ccc(F)c(O)c3)c2)CC1 [Compound 20, 2-Fluoro-5-(5-(4-(methylsulfonyl)piperazin-1-yl)-1H-indazol-1-yl)phenol] | 1000 to 30000 | –
14 | CNC(=O)C1CCN(c2ccc3c(cnn3-c3ccc(F)c(O)c3)c2)CC1 [Compound 20.03, 1-(1-(4-Fluoro-3-hydroxy-phenyl)-1H-indazol-5-yl)-N-methylpiperidine-4-carboxamide] | – | inhibition at 100 µM: 40%
15 | CN(C)C(=O)C1CCN(c2ccc3c(cnn3-c3ccc(F)c(O)c3)c2)CC1 [Compound 20.04, 1-(1-(4-Fluoro-3-hydroxy-phenyl)-1H-indazol-5-yl)-N,N-dimethylpiperidine-4-carboxamide] | – | inhibition at 10 µM: < 20%
16 | CC(=O)N1CCN(c2ccc3c(cnn3-c3ccc(F)c(O)c3)c2)CC1 [Compound 20.05, 1-(4-(1-(4-Fluoro-3-hydroxyphenyl)-1H-indazol-5-yl)piperazin-1-yl)ethan-1-one] | – | inhibition at 100 µM: < 20%
17 | CS(=O)(=O)N1CCN(c2ccc3c(cnn3-c3cc(O)c(F)c(F)c3)c2)CC1 [Compound 21, 2,3-Difluoro-5-(5-(4-(methylsulfonyl)piperazin-1-yl)-1H-indazol-1-yl)phenol] | 100 to 1000 | –

Second part, led by results:

Row | IC50 [nM] | Structure (SMILES) | other results
18 | 1000 to 30000 | Oc1cc(-n2ncc3cc(N4CCC(O)CC4)ccc32)ccc1F [Compound 20.01, 1-(1-(4-Fluoro-3-hydroxy-phenyl)-1H-indazol-5-yl)-piperidin-4-ol] | –
19 | 1000 to 30000 | O=C(O)C1CCN(c2ccc3c(cnn3-c3ccc(F)c(O)c3)c2)CC1 [Compound 20.02, 1-(1-(4-Fluoro-3-hydroxy-phenyl)-1H-indazol-5-yl)-piperidine-4-carboxylic acid] | –
20 | 100 to 1000 | Cc1nn(-c2cc(O)c(F)c(F)c2)c2ccc(N3CCN(S(C)(=O)=O)CC3)cc12 [Compound 21.01, 2,3-Difluoro-5-(3-methyl-5-(4-(methylsulfonyl)piperazin-1-yl)-1H-indazol-1-yl)phenol] | –
21 | 1000 to 30000 | COC1CCN(c2ccc3c(cnn3-c3ccc(F)c(O)c3)c2)CC1 [Compound 21.02, 2-Fluoro-5-(5-(4-methoxy-piperidin-1-yl)-1H-indazol-1-yl)phenol] | –
22 | 1000 to 30000 | CC(C)c1nn(-c2cc(O)c(F)c(F)c2)c2ccc(N3CCN(S(C)(=O)=O)CC3)cc12 [Compound 21.03, 2,3-Difluoro-5-(3-isopropyl-5-(4-(methylsulfonyl)piperazin-1-yl)-1H-indazol-1-yl)phenol] | –
23 | 100 to 1000 | CC(C)S(=O)(=O)N1CCN(c2ccc3c(cnn3-c3cc(O)c(F)c(F)c3)c2)CC1 [Compound 21.04, 2,3-Difluoro-5-(5-(4-(isoprop-ylsulfonyl)piperazin-1-yl)-1H-indazol-1-yl)phenol] | –
24 | 1000 to 30000 | CS(=O)(=O)NC1CCN(c2ccc3c(cnn3-c3cc(O)c(F)c(F)c3)c2)CC1 [Compound 21.05, N-(1-(1-(3,4-Difluoro-5-hydroxyphenyl)-1H-indazol-5-yl)piperidin-4-yl)methane-sulfonamide] | –
25 | 1000 to 30000 | CS(=O)(=O)C1CCN(c2ccc3c(cnn3-c3cc(O)c(F)c(F)c3)c2)CC1 [Compound 21.06, 2,3-Difluoro-5-(5-(4-(methyl-sulfonyl)piperidin-1-yl)-1H-indazol-1-yl)phenol] | –
26 | 1000 to 30000 | CS(=O)(=O)NC1CN(c2ccc3c(cnn3-c3cc(O)c(F)c(F)c3)c2)C1 [Compound 21.07, N-(1-(1-(3,4-Difluoro-5-hydroxyphenyl)-1H-indazol-5-yl)azetidine-3-yl)methane-sulfonamide] | –
